Measured values reported in PMC8981555 (RSC Advances, 2022).
Read-outs that look alike come from different tables or passages of the source.

Experiments:
jack bean urease [1] = biological target: T1, jack bean urease (Canavalia ensiformis, UniProt P07374); experiment: Urease inhibition assay; type: biochemical; settings: for % inhibition: value in parentheses after IC50, concentration not given
jack bean urease [2] = biological target: T1, jack bean urease; experiment: Enzyme kinetic studies; type: biochemical; settings: for Mode of inhibition: Lineweaver–Burk plots
[3] = at 20 μM concentration of the inhibitor

T1 sequence (P07374 whole entry, looked up): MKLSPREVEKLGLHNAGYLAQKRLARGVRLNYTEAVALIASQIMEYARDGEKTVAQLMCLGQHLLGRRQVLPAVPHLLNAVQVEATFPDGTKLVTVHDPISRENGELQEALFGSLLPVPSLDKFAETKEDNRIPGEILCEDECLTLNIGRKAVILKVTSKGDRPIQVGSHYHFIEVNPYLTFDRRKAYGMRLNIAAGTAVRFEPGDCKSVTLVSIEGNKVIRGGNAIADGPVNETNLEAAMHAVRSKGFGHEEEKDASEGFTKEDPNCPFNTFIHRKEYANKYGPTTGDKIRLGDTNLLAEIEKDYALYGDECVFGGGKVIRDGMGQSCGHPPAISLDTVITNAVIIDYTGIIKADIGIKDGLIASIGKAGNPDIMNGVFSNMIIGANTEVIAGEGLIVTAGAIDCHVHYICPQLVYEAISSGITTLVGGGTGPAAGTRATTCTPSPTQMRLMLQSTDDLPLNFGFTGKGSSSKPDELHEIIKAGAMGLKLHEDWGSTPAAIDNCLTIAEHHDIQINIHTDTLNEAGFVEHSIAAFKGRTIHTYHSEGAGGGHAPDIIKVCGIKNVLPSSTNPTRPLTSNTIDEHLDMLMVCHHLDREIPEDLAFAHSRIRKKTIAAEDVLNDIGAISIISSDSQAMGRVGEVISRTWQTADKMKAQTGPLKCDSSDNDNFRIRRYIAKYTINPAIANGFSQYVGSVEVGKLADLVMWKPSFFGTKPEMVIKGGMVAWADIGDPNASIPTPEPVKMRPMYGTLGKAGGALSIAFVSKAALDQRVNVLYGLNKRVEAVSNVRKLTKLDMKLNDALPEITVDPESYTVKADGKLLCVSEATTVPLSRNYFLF

IC50 (jack bean urease [1]) [µM]	% inhibition (jack bean urease [1]) [%]	Ki (jack bean urease [2]) [µM]	V max(app) (jack bean urease [2]; [3]) [µM/min]	SMILES	Mode of inhibition (jack bean urease [2])	K m(app) (jack bean urease [2]; [3]) [mM]	Ki (jack bean urease [2]; derived from Lineweaver–Burk and Dixon plots) [µM]
60.1 ± 0.78	61.3			CCCCCCCC(=O)NC(=S)Nc1cc(C)ccc1C [Compound 3d, N-(2′,5′-Dimethylphenylcarbamothioyl) octanamide]			
40.2 ± 0.45	76.2			CCCCCCCC(=O)NC(=S)Nc1ccc(C)c(C)c1 [Compound 3f, N-(3′,4′-Dimethylphenylcarbamothioyl) octanamide]			
15.2 ± 0.58	96.3	9.28	15.63	CCCCCCCC(=O)NC(=S)Nc1c(C)cccc1C [Compound 3g, N-(2′,6′-Dimethylphenylcarbamothioyl) octanamide]	Competitive	6.09	
30.6 ± 0.75	88.1			CCCCCCCC(=O)NC(=S)Nc1cc([N+](=O)[O-])ccc1OC [Compound 3h, N-(2′-Methoxy-5′-nitrophenylcarbamothioyl) octanamide]			
22 ± 0.45	91.4			CCCCCCCC(=O)NC(=S)Nc1c(Cl)cccc1Cl [Compound 3i, N-(2′,6′-Dichlorophenylcarbamothioyl) octanamide]			
39.1 ± 0.72	86.5			CCCCCCCC(=O)NC(=S)Nc1ccccc1Sc1ccccc1 [Compound 3j, N-(2′-(Phenylthio)phenylcarbamothioyl) octanamide]			
46.2 ± 0.78	85.8			CCCCCCCC(=O)NC(=S)Nc1cccc(C)c1C [Compound 3k, N-(2′,3′-Dimethylphenylcarbamothioyl) octanamide]			
31.16 ± 0.25	95.9			CCCCCCCC(=O)NC(=S)Nc1ccc(C(F)(F)F)cc1 [Compound 3m, N-(4′-(Trifluoromethyl)phenylcarbamothioyl) octanamide]			
20.2 ± 0.48	85.2			CCCCCCCCCCCC(=O)NC(=S)Nc1ccc(Cl)c(Cl)c1 [Compound 3p, N-(3′,4′-Dichlorophenylcarbamothioyl) dodecanamide]			

SMILES	IC50 (jack bean urease [1]) [µM]	% inhibition (jack bean urease [1]) [%]	Ki (jack bean urease [2]) [µM]	V max(app) (jack bean urease [2]; [3]) [µM/min]	Mode of inhibition (jack bean urease [2])	K m(app) (jack bean urease [2]; [3]) [mM]	Ki (jack bean urease [2]; derived from Lineweaver–Burk and Dixon plots) [µM]
NC(N)=S [Thiourea, reference compound]		92.1			Competitive	2.18	18.2
